Experimental data from ChEMBL document CHEMBL4251589, “4-Quinolone derivatives and their activities against Gram positive pathogens” (2018).
Values after ≈ are worked out from the molar mass of the structure shown.

Tests used:
Assay type in all cases: functional
[1] = test system: Staphylococcus epidermidis; experiment: Antibacterial activity against Staphylococcus epidermidis after 18 hrs by agar dilution assay
Staphylococcus aureus [2] = experiment: Antibacterial activity against Staphylococcus aureus
Staphylococcus aureus [3] = experiment: Antibacterial activity against Staphylococcus aureus ATCC 6538P after 18 hrs by agar dilution assay
Staphylococcus aureus [4] = experiment: Potency index, ratio of LMFX MIC to compound MIC for Staphylococcus aureus
Staphylococcus aureus [5] = experiment: Potency index, ratio of NRFX MIC to compound MIC for Staphylococcus aureus
Staphylococcus aureus [6] = experiment: Potency index, ratio of CPFX MIC to compound MIC for Staphylococcus aureus
Staphylococcus aureus [7] = experiment: Potency index, ratio of GTFX MIC to compound MIC for Staphylococcus aureus
Staphylococcus aureus [8] = experiment: Selectivity ratio of MIC for Staphylococcus aureus 209P JC1 to MIC for methicillin-resistant Staphylococcus aureus
[9] = Selectivity ratio of MIC for Micrococcus luteus ATCC 9341 to MIC for methicillin-resistant Staphylococcus aureus
Staphylococcus aureus [10] = experiment: Potency index, ratio of CPFX MIC to compound MIC for Staphylococcus aureus 1199-3
Staphylococcus aureus [11] = experiment: Potency index, ratio of CPFX MIC to compound MIC for Staphylococcus aureus 1199B
Staphylococcus aureus [12] = experiment: Potency index, ratio of CPFX MIC to compound MIC for Staphylococcus aureus 1199
Staphylococcus aureus [13] = experiment: Antibacterial activity against Staphylococcus aureus 1199
Staphylococcus aureus [14] = experiment: Antibacterial activity against Staphylococcus aureus 1199-3
Staphylococcus aureus [15] = experiment: Antibacterial activity against Staphylococcus aureus 1199B
Staphylococcus aureus [16] = experiment: Antibacterial activity against vancomycin-resistant Staphylococcus aureus GISA 992
Staphylococcus aureus [17] = experiment: Antibacterial activity against methicillin-resistant Staphylococcus aureus 494
[18] = test system: Staphylococcus epidermidis; experiment: Potency index, ratio of CPFX MIC to compound MIC for Staphylococcus epidermidis
Staphylococcus aureus [19] = experiment: Potency index, ratio of CPFX MIC to compound MIC for Staphylococcus aureus ATCC 6538P
[20] = test system: Staphylococcus epidermidis; experiment: Potency index, ratio of enoxacin MIC to compound MIC for Staphylococcus epidermidis
Staphylococcus aureus [21] = experiment: Potency index, ratio of NRFX MIC to compound MIC for Staphylococcus aureus ATCC 6538P
Staphylococcus aureus [22] = experiment: Potency index, ratio of enoxacin MIC to compound MIC for Staphylococcus aureus ATCC 6538P
[23] = test system: Staphylococcus epidermidis; experiment: Potency index, ratio of NRFX MIC to compound MIC for Staphylococcus epidermidis

In the case of `CCn1cc(C(=O)O)c(=O)c2cc(F)c(N3CCNCC3)cc21` [NORFLOXACIN], the MIC [1] is reported as 0.25 to 1 µg/mL (≈ 0.783 to 3.13 µM), the MIC (Staphylococcus aureus [2]) is reported as 0.02 to 39.06 µg/mL and the MIC (Staphylococcus aureus [3]) is reported as 0.25 to 1 µg/mL (≈ 0.783 to 3.13 µM).

Compound `CCn1cc(C(=O)O)c(=O)c2cc(F)c(N3CCNC(C)C3)c(F)c21` (stereo unspecified) [LOMEFLOXACIN] has an MIC (Staphylococcus aureus [2]) of 0.02 to 39.06 µg/mL.

With `CCn1cc(C(=O)O)c(=O)c2cc(F)c(N3CCN(CN4C(=O)/C(=N\c5ncc(Cc6cc(OC)c(OC)c(OC)c6)c(N)n5)c5cc(F)ccc54)C(C)C3)c(F)c21` (stereo unspecified) the MIC (Staphylococcus aureus [2]; Staphylococcus aureus, read-out: MIC) was 0.0095 µg/mL (≈ 0.0119 µM), the Ratio (Staphylococcus aureus [4]) was 2 - 4111 and the Ratio (Staphylococcus aureus [5]) was 2 - 4111. For the same compound, the Ratio (Staphylococcus aureus [6]) was 2 - 4111 and the Ratio (Staphylococcus aureus [7]) was 2 - 4111.

With `C=c1sc2c(C(=O)O)c(=O)c3cc(F)c(-c4ccc(N)cc4)cc3n12` the Ratio (Staphylococcus aureus [8]) was “>=16” and the Ratio [9] was over 16.

For `CCn1cc(C(=O)O)c(=O)c2cnc(N3CCN(Cc4ccc(CN5CCN(c6cc7c(cc6F)c(=O)c(C(=O)O)cn7C6CC6)CC5)cc4)CC3)nc21`, the Ratio (Staphylococcus aureus [10]) was over 4, the Ratio (Staphylococcus aureus [11]) was over 4 and the Ratio (Staphylococcus aureus [12]) was over 4.

For `COc1c(N2CCNC(C)C2)c(F)cc2c(=O)c(C(=O)O)cn(C3CC3)c12` (stereo unspecified) [GATIFLOXACIN], the MIC (Staphylococcus aureus [2]) was 0.02 to 39.06 µg/mL.

With `O=C(O)c1cn(C2CC2)c2cc(N3CCNCC3)c(F)cc2c1=O` [CIPROFLOXACIN] the MIC (Staphylococcus aureus [13]) was 0.125 to 32 µg/mL (≈ 0.377 to 96.6 µM), the MIC (Staphylococcus aureus [14]) was 0.125 to 32 µg/mL (≈ 0.377 to 96.6 µM) and the MIC [1] was 0.25 to 1 µg/mL (≈ 0.754 to 3.02 µM). The MIC (Staphylococcus aureus [2]) was 0.02 to 39.06 µg/mL, the MIC (Staphylococcus aureus [15]) was 0.125 to 32 µg/mL (≈ 0.377 to 96.6 µM) and the MIC (Staphylococcus aureus [3]) was 0.25 to 1 µg/mL (≈ 0.754 to 3.02 µM). For the same compound, the MIC (Staphylococcus aureus [16]) was 0.125 to 32 µg/mL (≈ 0.377 to 96.6 µM) and the MIC (Staphylococcus aureus [17]) was 0.125 to 32 µg/mL (≈ 0.377 to 96.6 µM).

In the case of `Cn1c([N+](=O)[O-])cnc1-c1nnc(N2CCN(c3cc4c(cc3F)c(=O)c(C(=O)O)cn4C3CC3)CC2)s1`, the Ratio [18] is reported as 32 - 128, the Ratio (Staphylococcus aureus [19]) is reported as 32 - 128 and the Ratio [20] is reported as 32 - 128. The Ratio (Staphylococcus aureus [21]) was 32 - 128, the Ratio (Staphylococcus aureus [22]) was 32 - 128 and the MIC [1] was 0.008 µg/mL (≈ 0.0148 µM). For the same compound, the Ratio [23] was 32 - 128 and the MIC (Staphylococcus aureus [3]) was 0.008 µg/mL (≈ 0.0148 µM).
